Reference: ChEMBL document CHEMBL6182893, “Discovery of non-electrophilic TRPA1 channel agonists with anti-nociceptive effects via rapid current desensitization” (Eur J Med Chem, 2025)
The source made the active and inactive calls.

Key:
[1] = target: T1, Transient receptor potential cation channel subfamily A member 1 (Homo sapiens, UniProt O75762); assay: Irreversible binding affinity to TRPA1 (unknown origin); conditions: filed as agonist
[2] = target: Transient receptor potential cation channel subfamily A member 1 (Mus musculus) (UniProt Q8BLA8); assay: Desensitization of mouse TRPA1 expressed in HEK293T cells assessed as time constant (tau) at 200 uM in presence of Ca2+ containing solution by whole cell patch clamp recording; assay type: cell-based; conditions: filed as agonist
[3] = system: Mus musculus; assay: Antinociceptive activity in CFA-induced male C57BL/6J mouse model of inflammatory pain assessed as paw withdrawal mechanical threshold at 20 mg/kg, po challenged with CFA for 24 hrs followed by compound administration for 30 mins and measured after 0.5 hrs (reference value: 0.39 +/- 0.05 g); assay type: functional; conditions: time 1 hrs
[4] = system: Mus musculus; assay: Antinociceptive activity in wildtype female C57BL/6J mouse model of thermal pain assessed as paw withdrawal latency time at 20 mg/kg, po preadministered for 30 mins followed by exposure to 55 degreeC and measured after 4 hrs by hot plate test (reference value: 17.41 +/- 1.18 sec); assay type: functional
[5] = system: Mus musculus; assay: Antinociceptive activity in CFA-induced male C57BL/6J mouse model of inflammatory pain assessed as paw withdrawal mechanical threshold at 20 mg/kg, po challenged with CFA for 24 hrs followed by compound administration for 30 mins and measured after 1 hrs (reference value: 0.22 +/- 0.03 g); assay type: functional; conditions: time 1.5 hrs
[6] = system: Mus musculus; assay: Antinociceptive activity in acetic-acid induced wildtype male C57BL/6J mouse model of visceral pain assessed as reduction in abdominal writhing at 20 mg/kg, po preadministered for 30 mins followed by acetic acid challenge and measured after 15 mins; assay type: functional, organism-based
[7] = system: Mus musculus; assay: Antinociceptive activity in acetic-acid induced TRPA1 knock-out mouse model of visceral pain assessed as reduction in abdominal writhing at 20 mg/kg, po preadministered for 30 mins followed by acetic acid challenge and measured after 15 mins; assay type: functional, organism-based
[8] = system: Mus musculus; assay: Antinociceptive activity in wildtype female C57BL/6J mouse model of thermal pain assessed as paw withdrawal latency time at 20 mg/kg, po preadministered for 30 mins followed by exposure to 55 degreeC and measured immediately by hot plate test (reference value: 16.65 +/- 1.02 sec); assay type: functional; conditions: 0.5 h
[9] = system: Mus musculus; assay: Antinociceptive activity in CFA-induced male C57BL/6J mouse model of inflammatory pain assessed as paw withdrawal mechanical threshold at 20 mg/kg, po challenged with CFA for 24 hrs followed by compound administration for 30 mins and measured after 2 hrs (reference value: 0.55 +/- 0.13 g); assay type: functional
[10] = system: Mus musculus; assay: Antinociceptive activity in CFA-induced male C57BL/6J mouse model of inflammatory pain assessed as paw withdrawal mechanical threshold at 20 mg/kg, po challenged with CFA for 24 hrs followed by compound administration for 30 mins and measured after 4 hrs (reference value: 0.47 +/- 0.10 g); assay type: functional
[11] = system: Mus musculus; assay: Effect on mechanical allodynia in male C57BL/6J mouse assessed as paw withdrawal mechanical threshold at 20 mg/kg, po administered for 30 mins (reference value: 1.77 +/- 0.21 g); assay type: functional; conditions: 0.5 h
[12] = system: Mus musculus; assay: Antinociceptive activity in CFA-induced male C57BL/6J mouse model of inflammatory pain assessed as paw withdrawal mechanical threshold at 20 mg/kg, po challenged with CFA for 24 hrs followed by compound administration for 30 mins and measured immediately (reference value: 0.47 +/ 0.14 g); assay type: functional; conditions: 0.5 h
[13] = system: Mus musculus; assay: Antinociceptive activity in wildtype female C57BL/6J mouse model of thermal pain assessed as paw withdrawal latency time at 20 mg/kg, po preadministered for 30 mins followed by exposure to 55 degreeC and measured after 60 mins by hot plate test (reference value: 13.65 +/- 0.69 sec); assay type: functional; conditions: time 90 min, 1.5 h
[14] = system: Mus musculus; assay: Antinociceptive activity in wildtype female C57BL/6J mouse model of thermal pain assessed as paw withdrawal latency time at 20 mg/kg, po preadministered for 30 mins followed by exposure to 55 degreeC and measured after 120 mins by hot plate test (reference value: 15.65 +/- 1.22 sec); assay type: functional; conditions: time 150 min
[15] = system: Mus musculus; assay: Antinociceptive activity in wildtype female C57BL/6J mouse model of thermal pain assessed as paw withdrawal latency time at 20 mg/kg, po preadministered for 30 mins followed by exposure to 55 degreeC and measured after 30 mins by hot plate test (reference value: 11.83 +/- 1.25 sec); assay type: functional; conditions: time 60 min, 1 h
[16] = Toxicity in wildtype C57BL/6J mouse assessed as irritation at 1 %, SC administered via hind paw and measured within 45 mins; conditions: in vivo, 0.75 h
[17] = target: T1, Transient receptor potential cation channel subfamily A member 1; assay: Agonist activity at human TRPA1 expressed in HEK293T cells assessed as increase in channel opening by measuring open probability at 30 uM in presence of A-967079 by single-channel recordings; assay type: cell-based; conditions: filed as agonist
[18] = target: T1, Transient receptor potential cation channel subfamily A member 1; assay: Agonist activity at human TRPA1 expressed in HEK293T cells assessed as increase in channel opening by measuring single channel conductance at 30 uM in presence of A-967079 by single-channel recordings; assay type: cell-based; conditions: filed as agonist
[19] = target: Transient receptor potential cation channel subfamily A member 1 (Mus musculus, UniProt Q8BLA8); assay: Agonist activity at mouse TRPA1 expressed in HEK293T cells by whole cell patch clamp recordings; assay type: cell-based
[20] = target: T1, Transient receptor potential cation channel subfamily A member 1; assay: Agonist activity at human TRPA1 expressed in HEK293T cells by whole cell patch clamp recordings; assay type: cell-based
[21] = Toxicity in wildtype C57BL/6J mouse assessed as irritation at 0.3 %, SC administered via hind paw and measured within 45 mins; conditions: in vivo, 0.75 h
[22] = system: Mus musculus; assay: Antinociceptive activity in TRPA1 knock-out mouse model of thermal pain assessed as increase in paw lick latency at 20 mg/kg, po preadministered for 30 mins followed by exposure to 55 degreeC and measured up to 4 hrs by hot plate test; assay type: functional, organism-based
[23] = Selectivity ratio of EC50 for agonist activity at mouse TRPA1 expressed in HEK293T cells to EC50 for agonist activity at human TRPA1 expressed in HEK293T cells; assay type: cell-based

T1 sequence (O75762 whole entry): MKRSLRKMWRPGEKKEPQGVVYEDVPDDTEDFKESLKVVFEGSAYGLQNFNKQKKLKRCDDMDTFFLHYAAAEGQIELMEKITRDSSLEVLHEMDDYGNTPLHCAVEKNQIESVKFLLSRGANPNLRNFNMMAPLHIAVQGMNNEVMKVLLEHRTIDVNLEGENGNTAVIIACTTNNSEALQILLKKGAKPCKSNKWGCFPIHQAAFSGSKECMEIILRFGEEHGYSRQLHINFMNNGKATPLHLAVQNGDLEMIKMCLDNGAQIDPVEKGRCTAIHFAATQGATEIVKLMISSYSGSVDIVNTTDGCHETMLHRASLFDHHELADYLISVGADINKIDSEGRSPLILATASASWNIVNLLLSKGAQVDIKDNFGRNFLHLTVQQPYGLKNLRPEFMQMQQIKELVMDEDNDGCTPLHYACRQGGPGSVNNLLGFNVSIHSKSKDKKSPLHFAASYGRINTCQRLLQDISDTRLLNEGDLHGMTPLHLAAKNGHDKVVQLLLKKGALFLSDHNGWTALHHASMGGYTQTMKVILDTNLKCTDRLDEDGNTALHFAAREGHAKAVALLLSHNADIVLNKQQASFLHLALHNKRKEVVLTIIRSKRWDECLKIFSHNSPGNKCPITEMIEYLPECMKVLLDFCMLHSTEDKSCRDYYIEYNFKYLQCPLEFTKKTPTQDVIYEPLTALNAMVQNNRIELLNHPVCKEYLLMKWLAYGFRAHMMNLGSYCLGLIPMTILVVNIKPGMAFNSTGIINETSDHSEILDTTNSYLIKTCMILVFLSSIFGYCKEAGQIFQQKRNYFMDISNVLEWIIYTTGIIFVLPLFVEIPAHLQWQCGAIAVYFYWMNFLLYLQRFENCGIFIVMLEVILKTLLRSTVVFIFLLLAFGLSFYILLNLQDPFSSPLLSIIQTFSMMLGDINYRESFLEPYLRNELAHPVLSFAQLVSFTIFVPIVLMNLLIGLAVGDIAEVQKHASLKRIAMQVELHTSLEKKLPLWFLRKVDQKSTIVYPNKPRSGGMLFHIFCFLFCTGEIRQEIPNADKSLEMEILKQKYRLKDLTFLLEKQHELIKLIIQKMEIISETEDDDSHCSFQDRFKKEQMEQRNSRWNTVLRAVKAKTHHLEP
Transient receptor potential cation channel subfamily A member 1 (Mus musculus, UniProt Q8BLA8), sequence (Q8BLA8 whole entry): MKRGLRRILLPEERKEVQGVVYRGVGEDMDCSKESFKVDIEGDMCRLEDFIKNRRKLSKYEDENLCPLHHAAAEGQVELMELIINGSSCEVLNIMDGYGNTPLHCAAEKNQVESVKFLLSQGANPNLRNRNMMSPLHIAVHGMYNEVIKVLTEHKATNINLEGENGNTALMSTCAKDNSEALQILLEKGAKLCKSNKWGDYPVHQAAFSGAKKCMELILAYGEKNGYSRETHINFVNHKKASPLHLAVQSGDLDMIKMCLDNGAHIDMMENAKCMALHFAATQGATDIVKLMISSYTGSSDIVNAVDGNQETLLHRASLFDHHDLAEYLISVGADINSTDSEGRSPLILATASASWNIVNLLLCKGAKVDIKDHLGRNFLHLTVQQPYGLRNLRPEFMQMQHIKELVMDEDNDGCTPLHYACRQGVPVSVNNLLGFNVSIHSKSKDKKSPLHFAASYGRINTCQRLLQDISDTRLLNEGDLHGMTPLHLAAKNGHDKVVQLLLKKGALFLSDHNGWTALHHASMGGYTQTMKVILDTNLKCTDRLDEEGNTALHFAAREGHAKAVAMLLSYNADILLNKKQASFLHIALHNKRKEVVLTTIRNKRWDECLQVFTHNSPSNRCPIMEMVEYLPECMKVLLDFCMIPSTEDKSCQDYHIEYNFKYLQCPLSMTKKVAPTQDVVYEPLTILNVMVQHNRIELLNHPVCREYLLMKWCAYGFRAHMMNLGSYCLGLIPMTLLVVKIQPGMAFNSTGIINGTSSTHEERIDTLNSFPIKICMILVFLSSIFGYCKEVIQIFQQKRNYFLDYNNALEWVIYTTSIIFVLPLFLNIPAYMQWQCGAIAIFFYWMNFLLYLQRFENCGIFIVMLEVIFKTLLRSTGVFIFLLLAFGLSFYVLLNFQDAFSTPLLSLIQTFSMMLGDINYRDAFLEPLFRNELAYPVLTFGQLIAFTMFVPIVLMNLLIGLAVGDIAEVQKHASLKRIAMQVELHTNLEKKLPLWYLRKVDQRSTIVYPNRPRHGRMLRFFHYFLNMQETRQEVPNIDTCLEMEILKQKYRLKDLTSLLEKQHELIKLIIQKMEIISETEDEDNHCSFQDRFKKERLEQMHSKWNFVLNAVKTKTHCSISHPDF
Transient receptor potential cation channel subfamily A member 1 (Mus musculus), sequence (Q8BLA8 whole entry): as above

Which Activity [1] does the source give for `COCCCNc1cc(-c2ccc(C)cc2)cs1` here?
Its Activity is “Active”.

For `S=C=NCc1ccccc1`, which TIME [2] is on record?
Its TIME is 0.0179 h.

Which Activity [3] does the source give for `CC(C)Cc1ccc(C(C)C(=O)O)cc1` (stereo not given) [IBUPROFEN] here?
Its Activity is 1.2 g.

What about the Time [4] of the same compound?
The Time was 14.03 s.

What about the Activity [5] of the same compound?
The Activity was 1.32 g.

What about the Activity [6] of the same compound?
The Activity was “Active”.

What about the Activity [7] of the same compound?
Its Activity is “Active”.

And the Time [8]?
The Time was 15.72 s.

What about the Activity [9] of the same compound?
The Activity was 0.69 g.

What about the Activity [10] of the same compound?
Its Activity is 0.42 g.

And the Activity [11]?
Its Activity is 1.84 g.

And the Activity [12]?
Its Activity is 0.22 g.

And the Time [13]?
The Time was 31.26 s.

What about the Time [14] of the same compound?
The Time was 15.46 s.

And the Time [15]?
The Time was 20.73 s.

With `CCCCCNc1nc(-c2ccc(O)cc2)cs1` as the compound, how does the Activity [1] read?
The Activity was “Active”.

For `C=CCN=C=S` [ALLYL ISOTHIOCYANATE], which Activity [16] is on record?
Its Activity is “Toxic”.

What about the Activity [17] of the same compound?
The Activity was 0.15.

And the Activity [18]?
Its Activity is 102 pS.

With `COCCCN(C(=O)CCl)c1nc(-c2ccc(OC)cc2)cs1` as the compound, how does the Activity [16] read?
Its Activity is “Toxic”.

And the EC50 [19]?
Its EC50 is 5.26 µM.

And the EC50 [20]?
Its EC50 is 0.00648 µM.

What about the Activity [21] of the same compound?
The Activity was “Non-toxic”.

And the Activity [22]?
The Activity was “Active”.

And the Ratio EC50 [23]?
The Ratio EC50 was 1000.
